Measured values taken from publication PMC5175178, “Development of an in-vivo active reversible butyrylcholinesterase inhibitor” (Scientific Reports, 2016).
Like-named read-outs stand apart in the source and are kept apart here.

Experiments:
mAChE = target: T1, mAChE (Mus musculus, UniProt P21836); test: In-vitro inhibitory activity against mAChE, method of Ellman; assay type: biochemical, murine
T1 construct: donated by Florian Nachon (IBS, Grenoble)
T1 sequence (P21836 32-614): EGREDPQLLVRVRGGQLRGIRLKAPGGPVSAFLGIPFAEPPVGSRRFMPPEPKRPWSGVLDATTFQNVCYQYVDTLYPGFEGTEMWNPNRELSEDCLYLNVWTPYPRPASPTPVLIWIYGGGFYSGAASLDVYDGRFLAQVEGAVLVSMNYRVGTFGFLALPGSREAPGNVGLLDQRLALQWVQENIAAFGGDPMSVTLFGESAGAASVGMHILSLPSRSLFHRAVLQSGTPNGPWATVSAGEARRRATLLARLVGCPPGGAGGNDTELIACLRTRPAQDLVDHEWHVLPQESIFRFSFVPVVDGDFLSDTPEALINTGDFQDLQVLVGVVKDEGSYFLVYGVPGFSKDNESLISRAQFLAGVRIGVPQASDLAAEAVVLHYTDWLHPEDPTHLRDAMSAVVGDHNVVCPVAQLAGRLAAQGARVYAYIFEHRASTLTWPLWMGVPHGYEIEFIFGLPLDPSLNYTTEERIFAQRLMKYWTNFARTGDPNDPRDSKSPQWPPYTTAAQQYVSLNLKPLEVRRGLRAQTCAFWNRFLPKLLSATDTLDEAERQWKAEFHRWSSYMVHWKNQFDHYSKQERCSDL
Procedure: (§1) The inhibitory potencies of the compounds against the ChEs were determined using the method of Ellman[32].
(§2) The enzyme solutions were prepared by dilution of the concentrated stocks in phosphate-buffered solution (0.1 M, pH 8.0). […] The reactions were started by addition of the substrate, at room temperature. The final content of the organic solvent (DMSO) was always 1%. […] To determine the blank value (b), phosphate-buffered solution replaced the enzyme solution. The initial velocity (v0) was calculated from the slope of the linear trend obtained, with each measurement carried out in triplicate. […] The compounds were added to each well at a final concentration of 10 μM. […] The initial velocities in the presence of the test compounds (vi) were calculated. The inhibitory potencies are expressed as the residual activities (RA = (vi – b) / (vo – b)). […] The IC50 values were obtained by plotting the residual enzyme activities against the applied inhibitor concentrations, with the experimental data fitted to Equation (1):
(§3) where X is the logarithm of the inhibitor concentration, and Y is the residual activity. For the fitting procedure, the Gnuplot software and an in-house python script were used.

huBChE = target: T2, huBChE (Homo sapiens, UniProt P06276); assay type: biochemical; conditions: for IC50: head prints no unit, nM, read-out: IC50 ±SEM huBChE
T2 construct: made in house
Procedure: as §1, §2, §3

[1] = residual activity at 10 µM, %RA >75% was considered no inhibition, Supplementary Table 1
[2] = residual activity at 10 μM, Table 1
[3] = residual activity at 10 μM, %RA > 75% was considered as no inhibition, Table 1

T2 sequence (P06276 29-602): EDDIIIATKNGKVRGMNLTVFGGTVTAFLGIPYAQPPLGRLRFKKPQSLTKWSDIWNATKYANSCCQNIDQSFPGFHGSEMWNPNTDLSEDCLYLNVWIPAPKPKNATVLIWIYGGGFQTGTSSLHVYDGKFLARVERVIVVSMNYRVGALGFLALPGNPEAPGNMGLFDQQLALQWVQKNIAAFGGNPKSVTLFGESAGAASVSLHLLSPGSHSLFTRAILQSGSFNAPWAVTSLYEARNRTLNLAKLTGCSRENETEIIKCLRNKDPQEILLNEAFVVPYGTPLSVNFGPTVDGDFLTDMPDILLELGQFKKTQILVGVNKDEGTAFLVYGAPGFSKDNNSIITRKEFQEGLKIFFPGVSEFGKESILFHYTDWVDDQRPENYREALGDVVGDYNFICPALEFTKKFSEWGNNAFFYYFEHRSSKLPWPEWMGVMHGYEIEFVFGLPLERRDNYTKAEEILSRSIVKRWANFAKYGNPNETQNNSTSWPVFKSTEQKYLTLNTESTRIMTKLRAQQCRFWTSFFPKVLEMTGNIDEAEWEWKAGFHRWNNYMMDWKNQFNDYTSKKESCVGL

Structure (SMILES) | IC50 (huBChE; Supplementary Table 1) [nM] | %RA at 10 µM ±SEM mAChE (mAChE; [1]) | also measured
COCCN(CC1CCCN(C2Cc3ccccc3C2)C1)C(=O)c1ccc2ccccc2c1 (centres unmarked) [compound 1, reference compound] |  |  | IC50 (mAChE; Table 1, read-out: IC50 (nM) ± SEM mAChE): 102000 ± 2500 nM
COCCN(CC1CCCN(C2Cc3ccccc3C2)C1)S(=O)(=O)c1cccc(NC(C)=O)c1 (racemic) [compound 24, (±)-N-(3-(N-((1-(2,3-dihydro-1H-inden-2-yl)piperidin-3-yl)methyl)-N-(2-methoxyethyl)sulfamoyl)phenyl)acetamide] | 8210 ± 601 | 95% ±4% | 
O=S(=O)(NCC1CCCN(Cc2ccncc2)C1)c1ccc2ccccc2c1 (racemic) [compound 64, (±)-N-((1-(pyridin-4-ylmethyl)piperidin-3-yl)methyl)naphthalene-2-sulfonamide] | 1670 ± 256 | 95% ±5% | 
COCCN(CC1CCCN(C2Cc3ccccc3C2)C1)S(=O)(=O)c1ccc(C)cc1 (racemic) [compound 17, (±)-N-((1-(2,3-dihydro-1H-inden-2-yl)piperidin-3-yl)methyl)-N-(2-methoxyethyl)-4-methylbenzenesulfonamide] | 279 ± 8 | 86% ±3% | 
COCCN(CC1CCCN(Cc2ccc(N(C)C)cc2)C1)S(=O)(=O)c1ccc2ccccc2c1 (racemic) [compound 41, (±)-N-((1-(4-(dimethylamino)benzyl)piperidin-3-yl)methyl)-N-(2-methoxyethyl)naphthalene-2-sulfonamide] | 311 ± 22 | 105% ±6% | 
COCCN(CC1CCCN(C2Cc3ccccc3C2)C1)S(=O)(=O)c1ccc([N+](=O)[O-])cc1 (racemic) [compound 20, (±)-N-((1-(2,3-dihydro-1H-inden-2-yl)piperidin-3-yl)methyl)-N-(2-methoxyethyl)-4-nitrobenzenesulfonamide] | 3470 ± 52 | 91% ±1% | 
COCCN(CC1CCCN(C2Cc3ccccc3C2)C1)S(=O)(=O)c1ccc(N)cc1 (racemic) [compound 22, (±)-4-amino-N-((1-(2,3-dihydro-1H-inden-2-yl)piperidin-3-yl)methyl)-N-(2-methoxyethyl)benzenesulfonamide] | 314 ± 36 | 91% ±1% | 
COCCN(CC1CCCN(C2Cc3ccccc3C2)C1)S(=O)(=O)c1ccc2ccccc2c1 (racemic) [compound 3, (±)-N-((1-(2,3-dihydro-1H-inden-2-yl)piperidin-3-yl)methyl)-N-(2-methoxyethyl)naphthalene-2-sulfonamide] |  | 72% ±1% | %RA at 10μM ± SEM huBChE (huBChE; [2]): 1.47% ± 1.54%; %RA at 10 µM ±SEM mAChE (mAChE; [3]): 72% ± 1%
COCCN(CC1CCCN(Cc2ccccc2)C1)S(=O)(=O)c1ccc2ccc(OC)cc2c1 (racemic) [compound 43, (±)-N-((1-benzylpiperidin-3-yl)methyl)-7-methoxy-N-(2-methoxyethyl)naphthalene-2-sulfonamide] | 156 ± 33 | 95% ±7% | 
COCCN(CC1CCCN(C2Cc3ccccc3C2)C1)S(=O)(=O)c1ccc(NC(C)=O)cc1 (racemic) [compound 23, (±)-N-(4-(N-((1-(2,3-dihydro-1H-inden-2-yl)piperidin-3-yl)methyl)-N-(2-methoxyethyl)sulfamoyl)phenyl)acetamide] | 321 ± 35 | 85% ±5% | 
COCCN(CC1CCCN(C2Cc3ccccc3C2)C1)S(=O)(=O)c1ccccc1C(=O)OC (racemic) [compound 21, (±)-methyl 2-(N-((1-(2,3-dihydro-1H-inden-2-yl)piperidin-3-yl)methyl)-N-(2-methoxyethyl)sulfamoyl)benzoate] | 359 ± 18 | 94% ±0.001% | 
Cc1cccc(CN2CCCC(CNS(=O)(=O)c3ccc4ccccc4c3)C2)c1 (racemic) [compound 66, (±)-N-((1-(3-methylbenzyl)piperidin-3-yl)methyl)naphthalene-2-sulfonamide] | 287 ± 22 | 57% ±4% | 
COCCN(CC1CCN(Cc2ccccc2)CC1)S(=O)(=O)c1ccc2ccccc2c1 [compound 75, N-((1-benzylpiperidin-4-yl)methyl)-N-(2-methoxyethyl)naphthalene-2-sulfonamide] |  | 98% ±1% | 
COCCN(CC1CCN(C2Cc3ccccc3C2)CC1)S(=O)(=O)c1ccc2ccccc2c1 [compound 84, N-((1-(2,3-dihydro-1H-inden-2-yl)piperidin-4-yl)methyl)-N-(2-methoxyethyl)naphthalene-2-sulfonamide] |  | 87% ±3% | 
COCCCN(CC1CCCN(Cc2ccccc2)C1)S(=O)(=O)c1ccc2ccc(OCC#N)cc2c1 (racemic) [compound 49, (±)-N-((1-benzylpiperidin-3-yl)methyl)-7-(cyanomethoxy)-N-(3-methoxypropyl)naphthalene-2-sulfonamide] | 113 ± 8 | 93% ±3% | 
COCCN(CC1CCCN(C2Cc3ccccc3C2)C1)S(=O)(=O)c1cccc([N+](=O)[O-])c1 (racemic) [compound 13, (±)-N-((1-(2,3-dihydro-1H-inden-2-yl)piperidin-3-yl)methyl)-N-(2-methoxyethyl)-3-nitrobenzenesulfonamide] | 3610 ± 528 |  | 
CN(CC1CCCN(Cc2ccc(F)cc2)C1)S(=O)(=O)c1ccc2ccccc2c1 (racemic) [compound 72, (±)-N-((1-(4-fluorobenzyl)piperidin-3-yl)methyl)-N-methylnaphthalene-2-sulfonamide] |  | 96% ±2% | 
COCCN(CC1CCCN(Cc2ccccc2)C1)S(=O)(=O)c1cccc2ccccc12 (racemic) [compound 42, (±)-N-((1-benzylpiperidin-3-yl)methyl)-N-(2-methoxyethyl)naphthalene-1-sulfonamide] | 59 ± 5.4 | 94% ±4% | 
COCCN(CC1CCCN(Cc2ccc(C#N)cc2)C1)S(=O)(=O)c1ccc2ccccc2c1 (racemic) [compound 39, (±)-N-((1-(4-cyanobenzyl)piperidin-3-yl)methyl)-N-(2-methoxyethyl)naphthalene-2-sulfonamide] | 1460 ± 115 | 97% ±2% | 
O=S(=O)(NCC1CCCN(c2nc3ccccc3s2)C1)c1ccc2ccccc2c1 (racemic) [compound 71, (±)-N-((1-(benzo[d]thiazol-2-yl)piperidin-3-yl)methyl)naphthalene-2-sulfonamide] |  |  | %RA at 10μM ± SEM huBChE (huBChE; residual activity at 10 µM, Supplementary Table 1): 30% ±2%
O=S(=O)(NCC1CCCN(Cc2ccc(F)cc2)C1)c1ccc2ccccc2c1 (racemic) [compound 68, (±)-N-((1-(4-fluorobenzyl)piperidin-3-yl)methyl)naphthalene-2-sulfonamide] | 583 ± 43 | 75% ±4% | 
COCCCN(CC1CCN(Cc2ccccc2)CC1)S(=O)(=O)c1ccc2ccccc2c1 [compound 6, N-((1-benzylpiperidin-4-yl)methyl)-N-(3-methoxypropyl)naphthalene-2-sulfonamide] |  | 95% ±4% | %RA at 10μM ± SEM huBChE (huBChE; [2]): 0.93% ± 0.27%; %RA at 10 µM ±SEM mAChE (mAChE; [3]): 95% ± 4%
COCCCN(CC1CCCN(Cc2ccccc2)C1)S(=O)(=O)c1ccc2ccccc2c1 (racemic) [compound 5, (±)-N-((1-benzylpiperidin-3-yl)methyl)-N-(3-methoxypropyl)naphthalene-2-sulfonamide] |  | 95% ±5% | %RA at 10μM ± SEM huBChE (huBChE; [2]): 0.71% ± 0.66%; %RA at 10 µM ±SEM mAChE (mAChE; [3]): 95% ± 5%
O=S(=O)(NCC1CCCN(Cc2ccccc2)C1)c1ccc2ccccc2c1 (racemic) [compound 7, (±)-N-((1-benzylpiperidin-3-yl)methyl)naphthalene-2-sulfonamide] |  | 78% ±3% | 
CN(CC1CCCN(Cc2ccccc2)C1)S(=O)(=O)c1ccc2ccccc2c1 (racemic) [compound 8, (±)-N-((1-benzylpiperidin-3-yl)methyl)-N-methylnaphthalene-2-sulfonamide] |  | 82% ±1% | 
O=S(=O)(NCC1CCN(Cc2ccccc2)CC1)c1ccc2ccccc2c1 [compound 86, N-((1-benzylpiperidin-4-yl)methyl)naphthalene-2-sulfonamide] |  |  | IC50 (mAChE): 1780 ± 85 nM
COCCCN(CC1CCN(C2Cc3ccccc3C2)CC1)S(=O)(=O)c1ccc2ccccc2c1 [compound 85, N-((1-(2,3-dihydro-1H-inden-2-yl)piperidin-4-yl)methyl)-N-(3-methoxypropyl)naphthalene-2-sulfonamide] |  | 86% ±0.004% | 
